The target of experiment [1] is T1, Runt-related transcription factor 1/Core-binding factor subunit beta (Homo sapiens, UniProt Q01196+Q13951). Put plainly: disruptors of Runt domain/CBFb-SMMHC interaction – biochemical, FRET, Cerulean-Runt, Venus-CBFb-SMMHC, uHTS, […] (AID 1434). In kind it is protein assay.
The target of experiment [2] is T1, Runt-related transcription factor 1/Core-binding factor subunit beta. Put plainly: Runt domain/CBFb-SMMHC interaction disruptors – biochemical, TR-FRET (AID 1438). In kind it is protein assay. (In general: In TR-FRET formats the signal depends on donor and acceptor labels being close together.)
Experiment [3] has as its target G-protein coupled receptor 55 (Homo sapiens, UniProt Q9Y2T6). Nature of the experiment: SAR Analysis of Selective Antagonists of GPR55 using an Image-Based Assay - Set 4. [Related pubchem assays (depositor defined):AID2013, AID2026]. Format: functional.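 Note: antagonism of response to 5 µM lysophosphatidylinositol agonist.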
Experiment [4] has as its target T2, Probable nicotinate-nucleotide adenylyltransferase (Staphylococcus aureus (strain N315), UniProt P65502). In kind it is functional, Staphylococcus aureus subsp. aureus N315. The settings on record: read-out: IC50_Mean.
Experiment [5] has as its target T3, Cannabinoid receptor 2 (Homo sapiens, UniProt P34972). Nature of the experiment: SAR analysis of antagonists of the Cannabinoid Receptor 2 using an Image-Based Assay - Set 3. [Related pubchem assays (depositor defined):AID2013, AID2026]. In kind it is functional.
The target in experiment [6] is T4, G-protein coupled receptor 35 (Homo sapiens, UniProt Q9HC97). Nature of the experiment: SAR analysis of Antagonists of the GPR35 Receptor using an Image-Based Assay - Set 6. [Related pubchem assays (depositor defined):AID2013, AID2026]. In kind it is functional.
Experiment [7] has as its target T2, Probable nicotinate-nucleotide adenylyltransferase. Format: functional, Staphylococcus aureus subsp. aureus N315.
In experiment [8] the target is T5, Cannabinoid receptor 1 (Homo sapiens, UniProt P21554). Put plainly: SAR analysis of agonists of the Cannabinoid Receptor 1 using an Image-Based Assay - Set 4. [Related pubchem assays (depositor defined):AID2013, AID2026]. Format: functional.
The target of experiment [9] is T4, G-protein coupled receptor 35. Nature of the experiment: SAR analysis of Agonists of the GPR35 Receptor using an Image-Based Assay - Set 4. [Related pubchem assays (depositor defined):AID2013, AID2026]. In kind it is functional.
For experiment [10], the target named is T5, Cannabinoid receptor 1. Put plainly: SAR analysis of antagonists of the Cannabinoid Receptor 1 using an Image-Based Assay - Set 4. [Related pubchem assays (depositor defined):AID2013, AID2026]. Format: functional.
Experiment [11] can be described thus: viability of uninfected HEp-2 cells – cell-based, HTS, cytotoxicity control for RSV inhibitor project, dose response (AID 2410). The settings on record: human respiratory syncytial virus. In kind it is functional.
Experiment [12] has as its target T3, Cannabinoid receptor 2. Put plainly: SAR analysis of agonists of the Cannabinoid Receptor 2 using an Image-Based Assay - Set 3. [Related pubchem assays (depositor defined):AID2013, AID2026]. In kind it is functional.
Experiment [13] addresses T6, Tyrosine-protein phosphatase non-receptor type 7 (Homo sapiens, UniProt P35236).
T6 sequence (P35236 whole entry): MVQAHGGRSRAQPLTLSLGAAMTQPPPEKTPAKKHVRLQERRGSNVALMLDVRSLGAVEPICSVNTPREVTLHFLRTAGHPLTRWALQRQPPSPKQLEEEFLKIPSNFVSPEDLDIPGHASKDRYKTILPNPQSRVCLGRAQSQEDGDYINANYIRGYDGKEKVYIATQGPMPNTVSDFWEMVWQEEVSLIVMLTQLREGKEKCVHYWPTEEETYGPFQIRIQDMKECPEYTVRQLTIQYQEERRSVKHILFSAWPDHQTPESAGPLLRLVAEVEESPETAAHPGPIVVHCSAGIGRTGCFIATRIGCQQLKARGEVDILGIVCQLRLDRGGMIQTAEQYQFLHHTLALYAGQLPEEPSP
Format: functional.

Experiment [14] addresses T7, Tyrosine-protein phosphatase non-receptor type 22 (Homo sapiens, UniProt Q9Y2R2).
T7 sequence (Q9Y2R2 whole entry): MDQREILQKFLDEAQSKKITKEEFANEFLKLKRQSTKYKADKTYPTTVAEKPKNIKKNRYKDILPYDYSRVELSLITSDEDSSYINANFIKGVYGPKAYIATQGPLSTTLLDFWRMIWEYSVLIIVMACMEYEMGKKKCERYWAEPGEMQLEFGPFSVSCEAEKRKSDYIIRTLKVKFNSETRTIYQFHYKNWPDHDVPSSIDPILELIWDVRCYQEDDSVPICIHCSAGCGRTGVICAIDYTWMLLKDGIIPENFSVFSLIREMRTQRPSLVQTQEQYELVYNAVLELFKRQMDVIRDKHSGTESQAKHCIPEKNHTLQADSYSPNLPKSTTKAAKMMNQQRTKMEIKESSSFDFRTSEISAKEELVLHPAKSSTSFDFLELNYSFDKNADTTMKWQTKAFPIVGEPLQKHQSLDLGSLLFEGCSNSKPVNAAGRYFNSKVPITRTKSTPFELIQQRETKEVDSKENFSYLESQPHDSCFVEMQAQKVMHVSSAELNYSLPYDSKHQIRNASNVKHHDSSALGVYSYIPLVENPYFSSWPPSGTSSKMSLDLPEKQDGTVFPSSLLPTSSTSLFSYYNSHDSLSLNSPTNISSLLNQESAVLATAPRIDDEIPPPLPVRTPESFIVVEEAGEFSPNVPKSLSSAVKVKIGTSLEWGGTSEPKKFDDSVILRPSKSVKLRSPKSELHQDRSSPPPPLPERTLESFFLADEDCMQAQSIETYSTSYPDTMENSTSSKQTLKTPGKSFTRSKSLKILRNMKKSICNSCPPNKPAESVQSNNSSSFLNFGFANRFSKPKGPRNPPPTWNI
In kind it is functional.

In experiment [15] the target is T7, Tyrosine-protein phosphatase non-receptor type 22. In kind it is functional. This is another data set of the same source.
Experiment [16] deals with Luciferin 4-monooxygenase (Photinus pyralis, UniProt P08659). Nature of the experiment: inhibition of purified Photinus pyralis luciferase – biochemical, luminescence, dose response (AID 1891).
Experiment [17] has as its target T8, E3 ubiquitin-protein ligase XIAP (Homo sapiens, UniProt P98170). Nature of the experiment: small molecules displacing peptide from XIAP – biochemical, IAP family, fluorescence polarization (AID 1018). In kind it is functional. Background: Polarisation of emitted light reports the rotation of a fluorescent probe.
For experiment [18], the target named is T8, E3 ubiquitin-protein ligase XIAP. Nature of the experiment: Counter Screen using XIAP-Bir3 for Chemical Antagonists of Bir1/2 domains of IAP-family anti-apoptotic proteins. [Related pubchem assays (depositor defined):AID1018, AID1449, AID1514, AID1638, AID1749, AID1750, AID488957, AID488963]. (A counterscreen serves to expose hits that act by an unwanted route or on another target.)

The nature of experiment [19]: Luminescence Cell-Based Dose Confirmation HTS to Identify Inhibitors of Platelet Dense Granule Release. [Related pubchem assays: 1663 (Primary HTS), 1678 (Summary of Project)]. In kind it is functional.
Experiment [20] deals with T8, E3 ubiquitin-protein ligase XIAP. Nature of the experiment: SAR analysis of Antagonists of XIAP-Bir3 domain of IAP-family anti-apoptotic proteins. [Related pubchem assays (depositor defined):AID1018, AID1449, AID1513, AID1514, AID1638].
The target is the same in experiment [21]. Put plainly: SAR analysis of Antagonists of IAP-family anti-apoptotic proteins. [Related pubchem assays (depositor defined):AID1018, AID1449, AID1513, AID1514, AID1638].
The target in experiment [22] is T9, Kappa-type opioid receptor (Homo sapiens, UniProt P41145). Nature of the experiment: SAR analysis of small molecule antagonists of the kappa opioid receptor via a luminescent beta-arrestin assay - Set 5. [Related pubchem assays (depositor defined):AID1778, AID1785]. In kind it is functional.
Experiment [23] addresses T9, Kappa-type opioid receptor. Nature of the experiment: SAR analysis of small molecule antagonists of the kappa opioid receptor via a luminescent beta-arrestin assay - Set 4. [Related pubchem assays (depositor defined):AID1777, AID1778, AID1785, AID1786, AID1966, AID2133, AID2136, AID2285]. Format: functional.
Experiment [24] addresses Induced myeloid leukemia cell differentiation protein Mcl-1 (Homo sapiens, UniProt Q07820). Format: functional.
Experiment [25] has as its target Troponin, cardiac muscle (Homo sapiens, UniProt P19429+P45379+P63316). Nature of the experiment: Fluorescence-based biochemical high throughput dose response assay for activators of the calcium sensitivity of cardiac Regulated Thin Filaments (RTF). [Related pubchem assays (depositor defined):AID493008, AID493018, AID504382, AID504383]. Format: protein-complex assay.

Experiment [26] concerns the target T10, Heat shock factor protein 1 (Mus musculus, UniProt P38532).
T10 sequence (P38532 whole entry): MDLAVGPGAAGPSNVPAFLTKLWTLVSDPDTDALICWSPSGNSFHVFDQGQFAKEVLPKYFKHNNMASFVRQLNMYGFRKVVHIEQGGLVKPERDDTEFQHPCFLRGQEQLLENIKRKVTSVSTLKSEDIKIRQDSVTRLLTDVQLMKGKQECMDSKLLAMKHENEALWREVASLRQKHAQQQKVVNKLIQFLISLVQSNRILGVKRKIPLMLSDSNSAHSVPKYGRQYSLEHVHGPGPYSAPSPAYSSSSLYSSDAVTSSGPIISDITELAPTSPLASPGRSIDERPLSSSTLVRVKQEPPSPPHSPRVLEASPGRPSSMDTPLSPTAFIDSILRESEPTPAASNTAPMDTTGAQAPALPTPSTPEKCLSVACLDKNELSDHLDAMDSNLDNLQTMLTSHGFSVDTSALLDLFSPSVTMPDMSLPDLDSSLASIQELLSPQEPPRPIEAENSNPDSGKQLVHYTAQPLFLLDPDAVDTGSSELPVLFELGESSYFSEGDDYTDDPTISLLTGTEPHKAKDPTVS
Nature of the experiment: enhancement of HSF1-driven luciferase signal – cell-based, NIH3T3, luminescence, dose retest, confirmation (AID 435004).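 Note: stress induced by proteasome inhibitor MG132 added 30 min after compound; luciferase reporter driven by HSF1 response element in NIH3T3 cells; actives raise luminescence as potentiators of the MG132 stress response.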 Format: functional.

Experiment [27] has as its target NADPH oxidase 1 (Homo sapiens, UniProt Q9Y5S8). Nature of the experiment: Late stage results from the probe development effort to identify inhibitors of NOX1: HEK/293 IC50. [Related pubchem assays: 1796 (Summary AID (NOX1)), 2752 (Primary screen (NOX1 inhibitors, synthesized analogs set 2)), 2664 (Primary screen (NOX1 inhibitors, synthesized analogs)), 1792 (Primary Screen (NOX1)), 2545 (Confirmation screen (NOX1 …. Format: functional.

Experiment [28] deals with NADPH oxidase 2 (Homo sapiens, UniProt P04839). Put plainly: PubChem AID 435013.
For experiment [29], the target named is NADPH oxidase 4 (Homo sapiens, UniProt Q9NPH5). Put plainly: PubChem AID 435013.
For experiment [30], the target named is NADPH oxidase 3 (Homo sapiens, UniProt Q9HBY0). Nature of the experiment: PubChem AID 435013.
A short description of experiment [31]: PhoP promoter GFP reporter reduction in Typhimurium – purified and synthesized compounds, set 2, PhoP regulon inhibitor project, dose response (AID 2831). In kind it is functional.

The source made the active and inactive calls.
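Throughout, for IC50 Mean: confirmatory dose-response retesting of NadD inhibitor hits first found in an ultra-high-throughput screen.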

On to `Cc1cc(C)n2nc3nc4c(cc3c2n1)CCCC4`, for which the IC50 in experiment [1] is 36.8 µM (active); in [2], > 100 µM (inactive).
As a reminder, the EC50 is the concentration needed to bring the measured effect to its halfway point. Broadly, the CC50 is the concentration giving 50% cytotoxicity. Consider `Cc1ccc(-c2cc(C(=O)Nc3ccc(S(=O)(=O)Nc4nccs4)cc3)c3ccccc3n2)c(C)c1`, for which the IC50 in [3] was 7.7 µM (active); in experiment [4] it was 21.6 µM (active); in experiment [5], > 32 µM (inactive); in experiment [6], > 32 µM (inactive); in [7] it was 5.29 µM (active); in experiment [10], 10.2 µM (inactive). Also, the EC50 in [8], in experiment [9] and in experiment [12] was > 32 µM (inactive) each time. For the same compound, the CC50 in experiment [11] is 24.3 µM (active).
Consider `COc1ccc(C2CC(c3ccc(C)cc3)=NN2C(=O)CCC(=O)O)cc1OC` (stereo unspecified), for which the IC50 in [13], in experiment [14] and in experiment [15] was > 79.4 µM (inactive) throughout.
As to `Cc1ccnc(N2C(=O)c3ccccc3C2O)c1` (stereo unspecified), the concentration for a half-maximal effect (EC50) is 27.7 µM (active) in experiment [16] and 6.49 µM (active) in experiment [19]. Further, the figures for the IC50 in experiment [17] and in experiment [18] were > 100 µM (not active) and > 100 µM (inactive), respectively.
For `CN[C@@H](C)C(=O)N[C@H](C(=O)N[C@@H](C)C(=O)NNc1ccccc1)C(C)C`, the figures for the IC50 in experiment [20] and in [21] were 132 µM (active) and 4.7 µM (active), respectively.
In the case of `Cc1ccc(S(=O)(=O)NCc2ccc(C(=O)NCCN(Cc3ccc([N+](=O)[O-])cc3)C(C)C)cc2)cc1`, the IC50 in [22] and in experiment [23] was > 20 µM (inactive) each time.
For `COc1ccc(N/C=C2\C(=O)CCc3c2oc2cc(Cl)c(O)c(Cl)c32)cc1`, the IC50 in experiment [24] was 4.32 µM (active). For the same compound, the concentration for a half-maximal effect (EC50) in experiment [25] was 3.93 µM (active); in experiment [26], > 260 µM (inactive).
For the compound `FC(F)(F)c1ccc2c(c1)Nc1ccccc1S2`, the IC50 is 1 µM (active) in experiment [27], 9 µM (active) in [28], 5 µM (active) in [29] and 7.5 µM (active) in experiment [30].
`OC1=C2C(=Nc3ccccc3SC2c2ccco2)c2ccccc21` (stereo unspecified): the IC50 in [31] was > 125 µM (active).

Source of the values: ChEMBL document CHEMBL1201862, “PubChem BioAssay data set” (2004).
